Measured values published in patent US7205326B2, “Aniline derivatives, their manufacture and use as pharmaceutical agents” (Hoffmann-La Roche Inc., priority 2003, dated 2007).

Columns and labels:
HCT116 cells = experiment: HCT116 cell proliferation MTT assay; assay type: cell-based; conditions: HCT-116; HCT116 human colon carcinoma cells, MTT assay after 5 days (120 h) incubation, compound 3 uM to 0.15 nM
Method: HCT116 cells (human colon carcinoma cell line) were cultivated in RPMI 1640, 2.5% FCS, 2 mM Glutamine, 100 u/ml Penicillin, 100 ug/ml Streptomycin. For the assay the cells were seeded in 384 well plates, 1000 cells per well, in the same medium
The next day compounds (dissolved 10 mM in DMSO) were added in various concentrations ranging from 3 uM to 0.15 nM. After 5 days the MTT assay was done mainly according to the instructions of the manufacturer (Cell proliferation kit I, MTT, from Roche Molecular Biochemicals). In brief: MTT labeling reagent was added to a final concentration of 0.5 mg/ml, added and incubated for 4 hrs at 37° C., 5% CO2. During this incubation time purple formazan crystals are formed. After addition of the solubilization solution (20% SDS in 0.02 M HCl) the plates were incubated overnight at 37° C., 5% CO2. After careful mixing plates were measured in Victor 2 (scanning multiwell spectrophotometer, Wallac) at 550 nm.
A decrease in number of living cells results in a decrease in the total metabolic activity in the sample. The decrease directly correlates to the amount of purple color resulting from the solubilization of the purple formazan crystals.
Materials: • HCT116 1000 cells in 60 ul per well of 384 well plate (Greiner) • Medium: RPMI 1640, 2.5% FCS, glutamine, pen/strep. • Incubate 1 day at 37° C.
Induction: • Dilution of compound in DMSO: 3 ul 10 mM+27 ul DMSO, dilute 1:3 • Add 2 ul of compound dilution row to 95 ul of medium • Add 10 ul of compound dilution to 60 ul medium in test plate results in 0.3% DMSO per well • Incubate 120 h (5 days) at 37° C., 5% CO2
Analysis: • Add 7 ul MTT ([…]), incubate 4 h at 37° C. • Add 30 ul lysis buffer (20% SDS, 0.04N HCl) per well • Incubate overnight at 37° C.
Measurement: • Victor 2 (scanning multiwell spectrophotometer, Wallac), at 550 nm • Determination of IC50 was done using XL-fit.

SMILES	IC50 (HCT116 cells) [nM]	melting point [°C]
FC(F)(F)Oc1ccc(C=Cc2nc(CNc3ccc(CCCCn4ccnn4)cc3)co2)cc1 [Example 1, [4-(4-[1,2,3]Triazol-1-yl-butyl)-phenyl]-{2-[2-(4-trifluoromethoxy-phenyl)-vinyl]-oxazol-4-ylmethyl}-amine]	< 20	103 to 105
FC(F)(F)c1ccc(C=Cc2nc(CNc3ccc(CCCCn4ccnn4)cc3)co2)cc1 [Example 2, [4-(4-[1,2,3]Triazol-1-yl-butyl)-phenyl]-{2-[2-(4-trifluoromethyl-phenyl)-vinyl]-oxazol-4-ylmethyl}-amine]	< 20	113 to 115
CN(Cc1coc(C=Cc2ccc(C(F)(F)F)cc2)n1)c1ccc(CCCCn2ccnn2)cc1 [Example 3, Methyl-[4-(4-[1,2,3]triazol-1-yl-butyl)-phenyl]-{2-[2-(4-trifluoromethyl-phenyl)-vinyl]-oxazol-4-ylmethyl}-amine]	< 20	112 to 114
FC(F)Oc1ccc(C=Cc2nc(CNc3ccc(CCCCn4ccnn4)cc3)co2)cc1 [Example 4, {2-[2-(4-Difluoromethoxy-phenyl)-vinyl]-oxazol-4-ylmethyl}-[4-(4-[1,2,3]triazol-1-yl-butyl)-phenyl]-amine]	> 40	101 to 102
Clc1ccc(C=Cc2nc(CNc3ccc(CCCCn4ccnn4)cc3)co2)cc1 [Example 5, {2-[2-(4-Chloro-phenyl)-vinyl]-oxazol-4-ylmethyl}-[4-(4-[1,2,3]triazol-1-yl-butyl)-phenyl]-amine]	< 20	120 to 122
C(=Cc1nc(CNc2ccc(CCCCn3ccnn3)cc2)co1)c1ccc2c(c1)OCO2 [Example 6, [2-(2-Benzo[1,3]dioxol-5-yl-vinyl)-oxazol-4-ylmethyl]-[4-(4-[1,2,3]triazol-1-yl-butyl)-phenyl]-amine]	> 40	130 to 131
FC1(F)Oc2ccc(C=Cc3nc(CNc4ccc(CCCCn5ccnn5)cc4)co3)cc2O1 [Example 7, {2-[2-(2,2-Difluoro-benzo[1,3]dioxol-5-yl)-vinyl]-oxazol-4-ylmethyl}-[4-(4-[1,2,3]triazol-1-yl-butyl)-phenyl]-amine]	> 40	102 to 104
FC(F)(F)Sc1ccc(C=Cc2nc(CNc3ccc(CCCCn4ccnn4)cc3)co2)cc1 [Example 8, [4-(4-[1,2,3]Triazol-1-yl-butyl)-phenyl]-{2-[2-(4-trifluoromethylsulfanyl-phenyl)-vinyl]-oxazol-4-ylmethyl}-amine]	< 20	76 to 78
FC(F)(F)c1ccc(C=Cc2nc(CNc3ccc(OCCCn4ccnn4)cc3)co2)cc1 [Example 9, [4-(3-[1,2,3]Triazol-1-yl-propoxy)-phenyl]-{2-[2-(4-trifluoromethyl-phenyl)-vinyl]-oxazol-4-ylmethyl}-amine]	< 20	134 to 136
CN(Cc1coc(C=Cc2ccc3c(c2)OCO3)n1)c1ccc(CCCCn2ccnn2)cc1 [Example 13, [2-(2-Benzo[1,3]dioxol-5-yl-vinyl)-oxazol-4-ylmethyl]-methyl-[4-(4-[1,2,3]triazol-1-yl-butyl)-phenyl]-amine]	> 40	
CN(Cc1coc(C=Cc2ccc(SC(F)(F)F)cc2)n1)c1ccc(CCCCn2ccnn2)cc1 [Example 14, Methyl-[4-(4-[1,2,3]triazol-1-yl-butyl)-phenyl]-{2-[2-(4-trifluoromethylsulfanyl-phenyl)-vinyl]-oxazol-4-ylmethyl}-amine]	< 20	
CN(Cc1coc(C=Cc2ccc(Cl)cc2)n1)c1ccc(CCCCn2ccnn2)cc1 [Example 15, {2-[2-(4-Chloro-phenyl)-vinyl]-oxazol-4-ylmethyl}-methyl-[4-(4-[1,2,3]triazol-1-yl-butyl)-phenyl]-amine]	> 40	
FC(F)(F)Oc1ccc(C=Cc2nc(CNc3ccc(OCCCn4ccnn4)cc3)co2)cc1 [Example 16, [4-(3-[1,2,3]Triazol-1-yl-propoxy)-phenyl]-{2-[2-(4-trifluoromethoxy-phenyl)-vinyl]-oxazol-4-ylmethyl}-amine]	> 40	
FC(F)(F)Sc1ccc(C=Cc2nc(CNc3ccc(OCCCn4ccnn4)cc3)co2)cc1 [Example 17, [4-(3-[1,2,3]Triazol-1-yl-propoxy)-phenyl]-{2-[2-(4-trifluoromethylsulfanyl-phenyl)-vinyl]-oxazol-4-ylmethyl}-amine]	> 40	
Clc1ccc(C=Cc2nc(CNc3ccc(OCCCn4ccnn4)cc3)co2)cc1 [Example 18, {2-[2-(4-Chloro-phenyl)-vinyl]-oxazol-4-ylmethyl}-[4-(3-[1,2,3]triazol-1-yl-propoxy)-phenyl]-amine]	> 40	

Continued, values first:

IC50 (HCT116 cells) [nM]	melting point [°C]	SMILES
> 40		O=C(Nc1ccc(OCCCn2ccnn2)cc1)c1coc(C=Cc2ccc(C(F)(F)F)cc2)n1 [Example 19, 2-[2-(4-Trifluoromethyl-phenyl)-vinyl]-oxazole-4-carboxylic acid [4-(3-[1,2,3]triazol-1-yl-propoxy)-phenyl]-amide]
> 40		O=C(Nc1ccc(OCCCn2ccnn2)cc1)c1coc(C=Cc2ccc(OC(F)(F)F)cc2)n1 [Example 20, 2-[2-(4-Trifluoromethoxy-phenyl)-vinyl]-oxazole-4-carboxylic acid [4-(3-[1,2,3]triazol-1-yl-propoxy)-phenyl]-amide]
> 40		O=C(Nc1ccc(CCCCn2ccnn2)cc1)c1coc(C=Cc2ccc(OC(F)(F)F)cc2)n1 [Example 21, 2-[2-(4-Trifluoromethoxy-phenyl)-vinyl]-oxazole-4-carboxylic acid [4-(4-[1,2,3]triazol-1-yl-butyl)-phenyl]-amide]
> 40		CN(C(=O)c1coc(C=Cc2ccc(OC(F)(F)F)cc2)n1)c1ccc(CCCCn2ccnn2)cc1 [Example 22, 2-[2-(4-Trifluoromethoxy-phenyl)-vinyl]-oxazole-4-carboxylic acid methyl-[4-(4-[1,2,3]triazol-1-yl-butyl)-phenyl]-amide]
> 40		CN(C(=O)c1coc(C=Cc2ccc(OC(F)(F)F)cc2)n1)c1ccc(OCCCn2ccnn2)cc1 [Example 23, 2-[2-(4-Trifluoromethoxy-phenyl)-vinyl]-oxazole-4-carboxylic acid methyl-[4-(3-[1,2,3]triazol-1-yl-propoxy)-phenyl]-amide]
> 40		FC(F)(F)c1cccc(C=Cc2nc(CNc3ccc(CCCCn4ccnn4)cc3)co2)c1 [Example 26, [4-(4-[1,2,3]Triazol-1-yl-butyl)-phenyl]-{2-[2-(3-trifluoromethyl-phenyl)-vinyl]-oxazol-4-ylmethyl}-amine]
< 20		O=C(Nc1ccc(CCCCn2ccnn2)cc1)c1coc(C=Cc2ccc3c(c2)OC(F)(F)O3)n1 [Example 29, 2-[2-(2,2-Difluoro-benzo [1,3]dioxol-5-yl)-vinyl]-oxazole-4-carboxylic acid [4-(4-[1,2,3]triazol-1-yl-butyl)-phenyl]-amide]
< 20		O=C(Nc1ccc(CCCCn2ccnn2)cc1)c1coc(C=Cc2ccc(OC(F)F)cc2)n1 [Example 31, 2-[2-(4-Difluoromethoxy-phenyl)-vinyl]-oxazole-4-carboxylic acid-[4-(4-[1,2,3]triazol-1-yl-butyl)-phenyl]-amide]
> 40		CN(C(=O)c1coc(C=Cc2ccc(OC(F)F)cc2)n1)c1ccc(CCCCn2ccnn2)cc1 [Example 32, 2-[2-(4-Difluoromethoxy-phenyl)-vinyl]-oxazole-4-carboxylic acid methyl-[4-(4-[1,2,3]-triazol-1-yl-butyl)-phenyl]-amide]
< 20		Fc1ccc(C=Cc2nc(CNc3ccc(CCCCn4ccnn4)cc3)co2)c(F)c1 [Example 34, {2-[2-(2,4-Difluoro-phenyl)-vinyl]-oxazol-4-ylmethyl}-[4-(4-[1,2,3]triazol-1-yl-butyl)-phenyl]-amine]
> 40		Fc1cc(Cl)ccc1C=Cc1nc(CNc2ccc(CCCCn3ccnn3)cc2)co1 [Example 35, {2-[2-(4-Chloro-2-fluoro-phenyl)-vinyl]-oxazol-4-ylmethyl}-[4-(4-[1,2,3]triazol-1-yl-butyl)-phenyl]-amine]
< 20		FC(F)(F)Oc1ccc(C=Cc2nc(CNc3ccc(COCCn4ccnn4)cc3)co2)cc1 [Example 36, [4-(2-[1,2,3]Triazol-1-yl-ethoxymethyl)-phenyl]-{2-[2-(4-trifluoromethoxy-phenyl)-vinyl]-oxazol-4-ylmethyl}-amine]
20 to 40		FC(F)(F)c1ccc(C=Cc2nc(CNc3ccc(COCCn4ccnn4)cc3)co2)cc1 [Example 37, [4-(2-[1,2,3]Triazol-1-yl-ethoxymethyl)-phenyl]-{2-[2-(4-trifluoromethyl-phenyl)-vinyl]-oxazol-4-ylmethyl}-amine]
